Data on 44 compounds can be found in patent US12384776B2, “Compounds and uses thereof” (Foghorn Therapeutics Inc., priority 2019, dated 2025).

Nanoluciferase-BRD9 fusion protein (3×FLAG-NLuc-BRD9) in SYO-1 cells, sequence (Q9H8M2 whole entry, the tested form may be a part): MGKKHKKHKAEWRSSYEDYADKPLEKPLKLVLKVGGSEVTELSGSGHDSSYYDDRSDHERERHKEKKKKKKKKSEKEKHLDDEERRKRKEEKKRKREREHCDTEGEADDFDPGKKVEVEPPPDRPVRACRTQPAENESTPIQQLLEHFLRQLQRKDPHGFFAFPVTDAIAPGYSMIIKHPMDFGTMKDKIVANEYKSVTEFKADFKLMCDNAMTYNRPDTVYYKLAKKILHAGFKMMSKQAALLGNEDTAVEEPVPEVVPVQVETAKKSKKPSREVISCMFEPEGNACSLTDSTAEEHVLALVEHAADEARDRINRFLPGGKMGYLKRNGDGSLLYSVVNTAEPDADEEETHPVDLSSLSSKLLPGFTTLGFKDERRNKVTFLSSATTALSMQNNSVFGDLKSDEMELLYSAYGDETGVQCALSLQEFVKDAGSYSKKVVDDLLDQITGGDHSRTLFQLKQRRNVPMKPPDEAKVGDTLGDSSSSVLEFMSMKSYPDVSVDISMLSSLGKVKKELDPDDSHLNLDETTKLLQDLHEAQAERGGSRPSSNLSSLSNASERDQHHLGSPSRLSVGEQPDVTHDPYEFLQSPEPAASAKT

One assay deals with Nanoluciferase-BRD9 fusion protein (3×FLAG-NLuc-BRD9) in SYO-1 cells (Homo sapiens (Human), UniProt Q9H8M2). Put plainly: SYO1 BRD9 NanoLuc degradation assay. Type of assay: cell-based. The following applies: SYO-1 cells expressing 3×FLAG-NLuc-BRD9, 6 hours incubation, top dose 1 μM. The essentials:
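Stable SYO-1 line expressing 3×FLAG-NLuc-BRD9, treated with 10-point 3-fold dilutions (top 1 μM final) for 6 hours. Nanoluciferase luminescence read with Nano-Glo reagent. % inhibition relative to DMSO (high control) and 1 μM reference BRD9 degrader (low control).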
As usually defined, the IC50 is the concentration that inhibits the measured activity by half. Compound `COc1cc(-c2cn(C)c(=O)c3c2CCN(C(=O)NCCCN2CCC(OC4CCN(c5ccc6c(c5)C(=O)N(C5CCC(=O)NC5=O)C6=O)CC4)C2)C3)cc(OC)c1CN(C)C` (centres unmarked) [Compound D225] came in with an IC50 of 10 to 100 nM.

Compound `CNC(=O)N1CCc2c(-c3cc(OC)c(CN4CC5CC4CC5CCN4CCN(c5ccc6c(c5)C(=O)N(C5CCC(=O)NC5=O)C6=O)CC4)c(OC)c3)cn(C)c(=O)c2C1` (centres unmarked) [Compound D138] displayed an IC50 of under 10 nM.

For the compound `CNC(=O)N1CCc2c(-c3cc(OC)c(CN4CC(S(=O)(=O)NCCCCOc5cccc6c5C(=O)N(C5CCC(=O)NC5=O)C6=O)C4)c(OC)c3)cn(C)c(=O)c2C1` (centres unmarked) [Compound D281], the IC50 was in the range of 10 to 100 nM.

Compound `CNC(=O)N1CCc2c(-c3cc(OC)c(CN(C)CC45CC(C(=O)NCCCCCOc6cccc7c6C(=O)N(C6CCC(=O)NC6=O)C7=O)(C4)C5)c(OC)c3)cn(C)c(=O)c2C1` (centres unmarked) [Compound D288] showed an IC50 of 100 to 1000 nM.

Compound `CNC(=O)N1CCc2c(-c3cc(OC)c(CN4CC5(CC(N)C5)C4)c(OC)c3)cn(C)c(=O)c2C1` [Compound B22] registered an IC50 of at least 1000 nM.

`CNC(=O)N1CCc2c(-c3cc(OC)c(CN4CCN(c5cnn(C6CCC(=O)NC6=O)c5)CC4)c(OC)c3)cn(C)c(=O)c2C1` (centres unmarked) [Compound D60] returned an IC50 of 100 to 1000 nM.

In turn, `CNC(=O)N1CCc2c(-c3cc(OC)c(CN4CC(S(=O)(=O)NCCCCOc5ccc6c(c5)C(=O)N(C5CCC(=O)NC5=O)C6=O)C4)c(OC)c3)cn(C)c(=O)c2C1` (centres unmarked) [Compound D278] returned an IC50 of 10 to 100 nM.

Turning to `COc1cc(-c2cn(C)c(=O)c3c2CCN(C(=O)NCCCN2CCC4C(C2)CN4c2ccc4c(c2)C(=O)N(C2CCC(=O)NC2=O)C4=O)C3)cc(OC)c1CN(C)C` (centres unmarked) [Compound D231], the IC50 is under 10 nM.

With `COc1cc(-c2cn(C)c(=O)c3c2CCN(C(=O)NCC2CC4(C2)CN(CCOc2ccc5c(c2)C(=O)N(C2CCC(=O)NC2=O)C5=O)C4)C3)cc(OC)c1CN(C)C` (centres unmarked) [Compound D268], the IC50 was in the range of 10 to 100 nM.

In turn, `CNC(=O)N1CCc2c(-c3cc(OC)c(CN4CCN(C5CCN(c6ccc7c(c6)C(=O)N(C6CCC(=O)NC6=O)C7=O)CC5)CC4)c(OC)c3)cn(C)c(=O)c2C1` (centres unmarked) [Compound D170] came in with an IC50 of under 10 nM.

In turn, `CNC(=O)N1CCc2c(-c3cc(OC)c(CN4CC(CCCN5CCN(c6ccc7c(c6)C(=O)N(C6CCC(=O)NC6=O)C7=O)CC5)C4)c(OC)c3)cn(C)c(=O)c2C1` (centres unmarked) [Compound D257] returned an IC50 of at least 1000 nM.

Consider `COc1cc(-c2cn(C)c(=O)c3c2CCN(C(=O)NCCCN2CC4(CCN(c5ccc6c(c5)C(=O)N(C5CCC(=O)NC5=O)C6=O)CC4)C2)C3)cc(OC)c1CN(C)C` (centres unmarked) [Compound D238], for which the IC50 lay within 10 to 100 nM.

Consider `CNC(=O)N1CCc2c(-c3cc(OC)c(CN4CCC(=CCN5CCN(c6ccc7c(c6)C(=O)N(C6CCC(=O)NC6=O)C7=O)CC5)CC4)c(OC)c3)cn(C)c(=O)c2C1` (centres unmarked) [Compound D127], for which the IC50 was under 10 nM.

Take `CNC(=O)N1CCc2c(-c3cc(OC)c(CN4CCC5(CC4)CN(C(=O)CCN4CCN(c6ccc7c(c6)C(=O)N(C6CCC(=O)NC6=O)C7=O)CC4)CCO5)c(OC)c3)cn(C)c(=O)c2C1` (centres unmarked) [Compound D175]: the IC50 lay in the range of 100 to 1000 nM.

Compound `COc1cc(-c2cn(C)c(=O)c3c2CCN(C(=O)NCCCCCCCCNc2cccc4c2CN(C2CCC(=O)NC2=O)C4=O)C3)cc(OC)c1CN1CCC1` (centres unmarked) [Compound D89] returned an IC50 of under 10 nM.

`COc1cc(-c2cn(C)c(=O)c3c2CCN(C(=O)NC2CC4(CCN(CCCOc5ccc6c(c5)C(=O)N(C5CCC(=O)NC5=O)C6=O)C4)C2)C3)cc(OC)c1CN(C)C` (centres unmarked) [Compound D262] registered an IC50 of 100 to 1000 nM.

With `CNC(=O)N1CCc2c(-c3cc(OC)c(CN4CCOC(CCN5CCN(c6ccc7c(c6)C(=O)N(C6CCC(=O)NC6=O)C7=O)CC5)C4)c(OC)c3)cn(C)c(=O)c2C1` (centres unmarked) [Compound D152], the IC50 is under 10 nM.

Take `COc1cc(-c2cn(C)c(=O)c3c2CCN(C(=O)NC2CC4CC2CN4CCOc2ccc4c(c2)C(=O)N(C2CCC(=O)NC2=O)C4=O)C3)cc(OC)c1CN(C)C` (centres unmarked) [Compound D274]: the IC50 lay in the range of 100 to 1000 nM.

In turn, `CNC(=O)N1CCc2c(-c3cc(OC)c(CN4CCN(CCC5CCN(c6c(F)c(F)c7c(c6F)C(=O)N(c6ccc(F)cc6F)C7=O)CC5)CC4)c(OC)c3)cn(C)c(=O)c2C1` [DD1] gave an IC50 of under 10 nM.

Consider `CNC(=O)N1CCc2c(-c3cc(OC)c(CN4CCN(CCC5CCN(c6ccc7c(c6)C(=O)N(C6CCC(=O)NC6=O)C7=O)CC5)CC4C(F)F)c(OC)c3)cn(C)c(=O)c2C1` (centres unmarked) [Compound D104], for which the IC50 was under 10 nM.

As to `CNC(=O)N1CCc2c(-c3cc(OC)c(CN4CCC5(CC4)CN(CCCCOc4ccc6c(c4)C(=O)N(C4CCC(=O)NC4=O)C6=O)CCO5)c(OC)c3)cn(C)c(=O)c2C1` (centres unmarked) [Compound D222], the concentration for half-maximal inhibition (IC50) was under 10 nM.

The compound `CNC(=O)N1CCc2c(c(-c3cc(OC)c(CN4CC5CN(C(=O)CCOCCOc6ccc7c(c6)C(=O)N(C6CCC(=O)NC6=O)C7=O)CCC54)c(OC)c3)cn(C)c2=O)C1` (centres unmarked) [Compound D295] came in with an IC50 of 100 to 1000 nM.

Regarding `COc1cc(-c2cn(C)c(=O)c3c2CCN(C(=O)NCCCN2CCC4C2CN4c2ccc4c(c2)C(=O)N(C2CCC(=O)NC2=O)C4=O)C3)cc(OC)c1CN(C)C` (centres unmarked) [Compound D260], the IC50 lay in the range of 10 to 100 nM.

`CNC(=O)N1CCc2c(-c3cc(OC)c(CN4CC(C(C)N5CCC6(CC5)CN(c5ccc7c(c5)C(=O)N(C5CCC(=O)NC5=O)C7)C6)C4)c(OC)c3)cn(C)c(=O)c2C1` (centres unmarked) [Compound D52] yielded an IC50 of under 10 nM.

`CNC(=O)N1CCc2c(-c3cc(OC)c(CN4CCC(CCN5CCN(c6cc7c(c(OC)c6)C(=O)N(C6CCC(=O)NC6=O)C7)CC5)CC4)c(OC)c3)cn(C)c(=O)c2C1` (centres unmarked) [Compound D50] came in with an IC50 of 10 to 100 nM.

Take `CNC(=O)N1CCc2c(-c3cc(OC)c(CN4CCC(CCN5CCC(c6ccc7c(c6)CN(C6CCC(=O)NC6=O)C7=O)CC5)CC4)c(OC)c3)cn(C)c(=O)c2C1` (centres unmarked) [Compound D68]: the IC50 is under 10 nM.

`CNC(=O)N1CCc2c(-c3cc(OC)c(CN4CCN(CCN5CCC(c6ccc7c(c6)C(=O)N(C6CCC(=O)NC6=O)C7)CC5)CC4)c(OC)c3)cn(C)c(=O)c2C1` (centres unmarked) [Compound D71] came in with an IC50 of under 10 nM.

`CNC(=O)N1CCc2c(-c3cc(OC)c(CN4CCOC(CCCN5CCN(c6ccc7c(c6)C(=O)N(C6CCC(=O)NC6=O)C7=O)CC5)C4)c(OC)c3)cn(C)c(=O)c2C1` (centres unmarked) [Compound D151] showed an IC50 of under 10 nM.

`CNC(=O)N1CCc2c(-c3cc(OC)c(CN4CCN(CC5CCN(c6ccc7c(c6)CN(C6CCC(=O)NC6=O)C7=O)CC5)CC4)c(OC)c3)cn(C)c(=O)c2C1` (centres unmarked) [Compound D39] displayed an IC50 of under 10 nM.

`COc1cc(-c2cn(C)c(=O)c3c2CCN(C(=O)NC2CC4(CCN(CCCCN5CCN(c6ccc7c(c6)C(=O)N(C6CCC(=O)NC6=O)C7=O)CC5)CC4)CO2)C3)cc(OC)c1CN(C)C` (centres unmarked) [Compound D217]: the IC50 is at least 1000 nM.

In turn, `COc1cc(-c2cn(C)c(=O)c3c2CCN(C(=O)NCCN2CCC4(C2)CN(c2ccc5c(c2)C(=O)N(C2CCC(=O)NC2=O)C5=O)C4)C3)cc(OC)c1CN(C)C` (centres unmarked) [Compound D189] had an IC50 of 100 to 1000 nM.

`COc1cc(-c2cn(C)c(=O)c3c2CCN(C(=O)NC2CC4(C2)CN(CCOc2ccc5c(c2)C(=O)N(C2CCC(=O)NC2=O)C5=O)C4)C3)cc(OC)c1CN(C)C` (centres unmarked) [Compound D264] gave an IC50 of at least 1000 nM.

On to `CNC(=O)N1CCc2c(-c3cc(OC)c(CN4CC(C(C)(C)N5CCC6(CC5)CN(c5ccc7c(c5)C(=O)N(C5CCC(=O)NC5=O)C7=O)C6)C4)c(OC)c3)cn(C)c(=O)c2C1` (centres unmarked) [Compound D124], for which the IC50 is under 10 nM.

`[2H]C([2H])([2H])n1cc(-c2cc(OC)c(CN3CCC(CN4CCC5(CC4)CC(Oc4ccc6c(c4)C(=O)N(C4CCC(=O)NC4=O)C6=O)C5)CC3)c(OC)c2)c2c(c1=O)CN(C(=O)NC)CC2` (centres unmarked) [Compound D44] returned an IC50 of under 10 nM.

For `COc1cc(-c2cn(C)c(=O)c3c2CCN(C(=O)NCC2CC4(CCN(CCOc5ccc6c(c5)C(=O)N(C5CCC(=O)NC5=O)C6=O)CC4)O2)C3)cc(OC)c1CN(C)C` (centres unmarked) [Compound D213], the IC50 lay in the range of 100 to 1000 nM.

Still in this assay, the particulars now being: SYO-1 cells, 6 hours, Table 6C.
`COc1cc(-c2cn(C)c(=O)c3c2CCCN3)cc(OC)c1CN1CCC2(CC1)CN(c1ccc3c(c1)C(=O)N(C1CCC(=O)NC1=O)C3)C2` (centres unmarked) [Compound D361]: the IC50 is under 10 nM.

Take `COc1cc(-c2cn(C)c(=O)c3c2CCC3)cc(OC)c1CN1CC(Oc2ccc3c(c2)C(=O)N(C2CCC(=O)NC2=O)C3=O)C1` (centres unmarked) [Compound D362]: the IC50 is under 10 nM.

In turn, `COc1cc(-c2cn(C)c(=O)c3c2COC3)cc(OC)c1CN1CC(C#Cc2ccc3c(c2)C(=O)N(C2CCC(=O)NC2=O)C3)C1` (centres unmarked) [Compound D367] showed an IC50 of under 10 nM.

Compound `COc1cc(-c2cn(C)c(=O)c3c2CCCN3)cc(OC)c1CN1CCC2(CC1)CN(c1ccc3c(c1)C(=O)N(C1CCC(=O)NC1=O)C3=O)C2` (centres unmarked) [Compound D351] showed a concentration for half-maximal inhibition (IC50) of at least 10 nM.

The compound `CNC(=O)N1CCc2c(-c3cc(OC)c(CN4CCC(CN5CCC6(CC5)CC(Oc5ccc7c(c5)C(=O)N(C5CCC(=O)NC5=O)C7=O)C6)CC4)c(OC)c3)cn(C(F)F)c(=O)c2C1` (centres unmarked) [Compound D338] showed an IC50 of under 10 nM.

The compound `CNC(=O)N1CCc2c(-c3cc(OC)c(CN4CCN(CCC5CCN(c6ccc7c(c6)C(=O)N(C6CCC(=O)NC6=O)C7)CC5)CC45CCC5)c(OC)c3)cn(C)c(=O)c2C1` (centres unmarked) [Compound D332] returned an IC50 of under 10 nM.

On to `COc1cc(-c2cn(C)c(=O)c3c2CCN(C(=O)NCC(F)F)C3)cc(OC)c1CN1CCN(CCC2CCN(c3ccc4c(c3)CN(C3CCC(=O)NC3=O)C4=O)CC2)CC12CC2` (centres unmarked) [Compound D311], for which the IC50 was under 10 nM.

`CNC(=O)N1CCc2c(-c3cc(OC)c(CN4CCC5(CN(c6ccc7c(c6)C(=O)N(C6CCC(=O)NC6=O)C7)C5)C(C)C4)c(OC)c3)cn(C)c(=O)c2C1` (centres unmarked) [Compound D304]: the IC50 was under 10 nM.

As for `CNC(=O)N1CCc2c(-c3cc(OC)c(CN4CCN(CCC5CCN(c6ccc7c(c6)C(=O)N(C6CCC(=O)NC6=O)C7)CC5)CC45CC5)c(OC)c3)cn(C)c(=O)c2C1` (centres unmarked) [Compound D314], the IC50 was under 10 nM.
